Values after ≈ are worked out from the molar mass of the structure shown. Values joined by “and” are separate entries in the source; they are usually repeats but may differ in a detail not shown here. Equal entries are not always repeated. Structures can show the parent of a compound that is named as a salt.
How the values were obtained:
B16-F10 murine melanoma = assay: in vitro cytotoxicity assay, B16-F10 murine melanoma; type: cell-based; conditions: four-fold serial dilution, replicate determinations on separate lines; for IC50: Mus musculus, B16-F10, concentration required to inhibit cell growth by 50%; for IC50 B16-F10: concentration required to inhibit cell growth by 50%
Protocol: (§1) Representative compounds of the present invention were also evaluated in in vitro cytotoxicity assay against various murine and human tumor cell lines. The in vitro cytotoxicity assay involved growing various mammalian tumor cells, including human tumor cells, on microtitre plates employing established tissue culture methods. The concentration of each compound required to inhibit cell growth by 50% (IC50) was then determined by four-fold serial dilution technique. Tumor cells of the following types were employed for each compound tested: B16-F10 murine melanoma; Moser human colon; SW900 human lung; and two human colon tumor cell lines namely HCT-116, and HCT/VP35, the latter being resistant to etoposide (VP). […] The in vitro data may also be evaluated in terms of potency ratio which is defined as the ratio of IC50 against an etoposide-resistant cell-line to IC50 against an etoposide-sensitive cell-line.

HCT-116 = assay: in vitro cytotoxicity assay, HCT-116 human colon tumor; type: cell-based; conditions: four-fold serial dilution, replicate determinations on separate lines; for IC50: Homo sapiens, HCT-116, concentration required to inhibit cell growth by 50%; for IC50 HCT-116: concentration required to inhibit cell growth by 50%
Protocol: as §1

HCT/VP35 = assay: in vitro cytotoxicity assay, HCT/VP35 human colon tumor resistant to etoposide; type: cell-based; conditions: for IC50: Homo sapiens, HCT/VP35, etoposide-resistant line; for IC50 / IC50 HCT/VP35: concentration required to inhibit cell growth by 50%, four-fold serial dilution, replicate determinations on separate lines; for IC50 HCT/VP35: etoposide-resistant line
Protocol: as §1

SW900 human lung = assay: in vitro cytotoxicity assay, SW900 human lung; type: cell-based; conditions: four-fold serial dilution, replicate determinations on separate lines; for IC50: Homo sapiens, SW900, concentration required to inhibit cell growth by 50%; for IC50 SW900: concentration required to inhibit cell growth by 50%
Protocol: as §1

Moser human colon = assay: in vitro cytotoxicity assay, Moser human colon; type: cell-based; conditions: concentration required to inhibit cell growth by 50%, four-fold serial dilution, replicate determinations on separate lines; for IC50: Homo sapiens
Protocol: as §1

[1] = Cancer Chemoth. Rep., 1966, 50:565-571; cited from earlier work
P388 leukemia = assay: antitumor activity against intravenously implanted P388 leukemia in BDF1 female mice; type: in vivo, murine (BDF1 female mice); conditions: 10^6 P388 cells i.v., drug i.v. on days 5 and 8, 200 mg/kg/dose, 64 days
Protocol: Compound of Example 15 was evaluated against intravenously implanted P388 leukemia (10^6 cells) in BDF1 female mice. The test compound was administered intravenously at various dose levels to groups of six mice on days 5 and 8; the positive control, etoposide, was given intraperitoneally. The experiment lasted 64 days.

Structure (SMILES) | IC50 (B16-F10 murine melanoma) [µg/mL] | IC50 B16-F10 (B16-F10 murine melanoma) | IC50 (HCT-116) [µg/mL] | IC50 HCT-116 (HCT-116) | IC50 (HCT/VP35) [µg/mL] | IC50 HCT/VP35 (HCT/VP35) [µg/mL] | potency ratio IC50 HCT/VP35 : IC50 HCT-116 (HCT/VP35; ratio of IC50 against etoposide-resistant cell line to IC50 against etoposide-sensitive cell line, same experiment) | IC50 (SW900 human lung) [µg/mL] | IC50 SW900 (SW900 human lung) [µg/mL] | IC50 (Moser human colon) [µg/mL] | IC50 Moser (Moser human colon) | antitumor activity in clinical trials [1] | max. % T/C (P388 leukemia) [% T/C]
CCCCCCCC(=O)Oc1c(OC)cc([C@@H]2c3cc4c(cc3[C@@H](O[C@@H]3O[C@@H]5CO[C@@H](C)O[C@H]5[C@H](O)[C@H]3O)[C@H]3CNC(=O)[C@H]23)OCO4)cc1OC [Example 11, 6H-Pyrrolo[3',4':6,7]naphtho[2,3-d]-1,3-dioxole-6-one, 5,5a,7,8,8a,9-hexahydro-9[(4,6-O-ethylidene-β-D-glucopyranosyl)oxy]-5-[(3,5-dimethoxy-4-octanoyloxy)phenyl], [5R-[5α,5aβ,8aα,9β(R*)]-] | 21 (≈ 29.4 µM) | 20.69 µg/mL (≈ 29 µM) | 17.3 (≈ 24.2 µM) | 18.33 µg/mL (≈ 25.7 µM) | 18.7 (≈ 26.2 µM) | 25.22 (≈ 35.3 µM) | 1 | 12.3 (≈ 17.3 µM) | 12.48 (≈ 17.5 µM) | 20.2 (≈ 28.3 µM) | 25.92 µg/mL (≈ 36.3 µM) |  | 
COc1cc([C@@H]2c3cc4c(cc3[C@@H](O[C@@H]3O[C@@H]5CO[C@@H](C)O[C@H]5[C@H](O)[C@H]3O)[C@H]3CN(N=C(C)C)C(=O)[C@H]23)OCO4)cc(OC)c1O (relative stereo) [Example 8, 6H-Pyrrolo[3',4':6,7]naphtho[2,3-d]-1,3-dioxole-6-one, 5,5,a,7,8,8a,9-hexahydro-9-[(4,6-O-ethylidene-β-D-glucopyranosyl)oxy]-5-[(4-hydroxy-3,5-dimethoxy)phenyl]-7-[(2-propylidene)amino]-, [5 R-[5α,5aβ,8aα,9β(R*)]-] | 43.2 (≈ 67.3 µM) | 61.29 µg/mL and 74.21 µg/mL | 69.4 (≈ 108 µM) | 78.90 µg/mL and 108.89 µg/mL | 103 (≈ 160 µM) | 96.26 (≈ 150 µM) |  | > 250 |  |  | 91.26 µg/mL and 123.63 µg/mL and > 250 µg/mL |  | 
CCNNC(=O)C1C(c2cc(OC)c(OC)c(OC)c2)c2cc3c(cc2C(O)C1CO)OCO3 (stereo not shown) [ethyl hydrazide of podophyllotoxin (V), ethyl hydrazide of podophyllotoxin] |  |  |  |  |  |  |  |  |  |  |  | minimal antitumor activity | 
COc1cc([C@@H]2c3cc4c(cc3[C@@H](O[C@@H]3O[C@@H]5CO[C@@H](C)O[C@H]5[C@H](O)[C@H]3O)[C@H]3CN(N=Cc5ccccc5)C(=O)[C@H]23)OCO4)cc(OC)c1O [Example 3, 6H-Pyrrolo[3',4':6,7]naphtho[2,3-d]-1,3-dioxole-6-one, 5,5a,7,8,8a,9-hexahydro-9-[(4,6-O-ethylidene-β-D-glucopyranosyl)oxy]-5-[(4-hydroxy-3,5-dimethoxy)phenyl]-7-[(phenylmethylene)amino][5R-[5α,5aβ,8aα,9β(R*)]-] | 10.3 (≈ 15 µM) | 17.80 µg/mL (≈ 25.8 µM) | 23.8 (≈ 34.4 µM) | 20.04 µg/mL (≈ 29 µM) | 38.3 (≈ 55.5 µM) | 42.37 (≈ 61.3 µM) |  | 36.5 (≈ 52.8 µM) | 48.73 (≈ 70.6 µM) | 56.4 (≈ 81.7 µM) | 73.81 µg/mL (≈ 107 µM) |  | 
COc1cc([C@@H]2c3cc4c(cc3[C@@H](O[C@@H]3O[C@@H]5CO[C@@H](C)O[C@H]5[C@H](O)[C@H]3O)[C@H]3CNC(=O)[C@H]23)OCO4)cc(OC)c1OP(=O)(O)O [Example 15, 6H-Pyrrolo[3',4':6,7]naphtho[2,3-d]-1,3-dioxole-6-one, 5,5a,7,8,8a,9-hexahydro-9-[(4,6-O-ethylidene-β-Dglucopyranosyl)oxy]-5-[(3,5-dimethoxy-4-phosphonoxy)phenyl]-1, disodium salt, [5R-[5α,5aβ,8aα,9β(R*)]-] |  |  |  |  |  |  |  |  |  |  |  |  | 235
COc1cc([C@@H]2c3cc4c(cc3[C@@H](O[C@@H]3O[C@@H]5CO[C@@H](C)O[C@H]5[C@H](O)[C@H]3O)[C@@H](CO)[C@@H]2C(N)=O)OCO4)cc(OC)c1O (relative stereo) [Example 2, Naphtho[2,3-d]-1,3-dioxole-6-carboxamide, 5,6,7,8-tetrahydro-8-[(4,6-0-ethylidene-β-D-glucopyranosyl)oxy]-5-[(4-hydroxy-3,5-dimethoxy)phenyl]-7-(hydroxymethyl)-, [5Rα,6α,7β,8β(R*)]-] | 70.6 (≈ 117 µM) | 93.03 µg/mL (≈ 154 µM) | 78.6 (≈ 130 µM) | 96.28 µg/mL (≈ 159 µM) | > 250 |  |  | 106 (≈ 175 µM) | 120.54 (≈ 199 µM) | 107 (≈ 177 µM) | 115.67 µg/mL (≈ 191 µM) |  | 

Source: US4958010A, “Epipodophyllotoxin glucoside lactam derivatives” (Bristol-Myers Company, priority 1989, dated 1990)
